Like-named read-outs stand apart in the source and are kept apart here.
Legend:
DMD participants [1] = details: cited from earlier work
[2] = biological target: T1, mineralocorticoid receptor (Homo sapiens, UniProt P08235); details: background statement; cited from earlier work
T1 sequence (P08235 1-984): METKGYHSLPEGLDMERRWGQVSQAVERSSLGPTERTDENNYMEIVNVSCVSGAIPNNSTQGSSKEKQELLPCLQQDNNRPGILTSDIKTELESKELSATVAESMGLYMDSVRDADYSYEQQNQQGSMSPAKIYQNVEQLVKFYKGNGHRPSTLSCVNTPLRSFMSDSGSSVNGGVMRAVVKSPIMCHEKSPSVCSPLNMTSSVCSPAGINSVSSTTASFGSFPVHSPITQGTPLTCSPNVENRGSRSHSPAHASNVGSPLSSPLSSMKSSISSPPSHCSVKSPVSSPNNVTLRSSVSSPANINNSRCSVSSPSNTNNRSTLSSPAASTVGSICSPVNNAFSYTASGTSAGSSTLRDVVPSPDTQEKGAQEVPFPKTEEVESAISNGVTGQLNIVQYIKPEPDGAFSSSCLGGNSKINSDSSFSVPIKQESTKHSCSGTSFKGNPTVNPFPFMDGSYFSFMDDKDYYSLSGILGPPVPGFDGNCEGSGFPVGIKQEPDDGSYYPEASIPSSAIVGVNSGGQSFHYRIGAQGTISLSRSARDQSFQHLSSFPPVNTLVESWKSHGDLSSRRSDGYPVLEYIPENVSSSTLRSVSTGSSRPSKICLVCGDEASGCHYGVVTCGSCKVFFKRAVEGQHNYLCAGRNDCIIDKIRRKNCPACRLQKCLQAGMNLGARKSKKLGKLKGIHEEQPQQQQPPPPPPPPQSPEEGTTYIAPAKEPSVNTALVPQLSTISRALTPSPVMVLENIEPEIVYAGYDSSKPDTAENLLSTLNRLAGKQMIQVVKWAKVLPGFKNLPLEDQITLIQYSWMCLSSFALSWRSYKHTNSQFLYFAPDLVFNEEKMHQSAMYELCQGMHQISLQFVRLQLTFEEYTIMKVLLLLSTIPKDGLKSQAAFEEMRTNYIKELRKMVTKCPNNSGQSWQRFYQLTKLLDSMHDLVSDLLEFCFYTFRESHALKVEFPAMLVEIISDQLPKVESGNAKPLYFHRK

DMD subjects = details: cited from earlier work
DMD participants [3] = test: Prespecified safety evaluation: height percentile for age and BMI z-score; type: in vivo, human; details: for Mean BMI z-score, change from baseline (SD): 0.75 mg/kg/day
Method: As with the […] comparators, group-matching criteria were prespecified in the iSAP, and 2 independent statisticians carried out the participant matching. […] There was no corresponding 12-month assessment in vamorolone-treated participants. (Assessments of vamorolone-treated trial participants were 0, 3, 6, and 18 months). Standing height and weight were assessed at each study visit. Height z-score, body mass index (BMI: kg/m^2), and BMI z-score were calculated centrally. AE reporting was done per protocol in the vamorolone trials. The current study is the first to evaluate the longer-term tolerability, efficacy, and safety of vamorolone in DMD. […] Given the variable timing of dose escalations, it was prespecified that initial analyses of drug-related efficacy and safety would be limited to those participants who had 18 months of treatment with 2.0 mg/kg/day vamorolone or more (dose group C+dose group D: n=23). Outcomes for these participants were compared to a group-matched cohort from the […] over 18 months (corticosteroid-naïve, n=19: corticosteroid-treated, n=68). Participants were matched for age and treatment period (+1 month), matching criteria were prespecified in the statistical analysis plan. Two independent statisticians carried out the matching. […] Participants in the corticosteroid-treated […] group were treated for at least 18 months, but the total duration, dose, and regimens varied. Statistical analyses were done on paired longitudinal outcome data using an analysis of covariance (ANCOVA) approach with change from baseline (VBP15-002) to month 18 (midpoint of VBP15-LTE). Baseline response and age were included as covariates. For the vamorolone-treated participants, age was calculated as (date of informed consent minus birthdate)/365.25. For the DNHS participants, age was calculated as (date of baseline visit used minus birthdate)/365.25. The baseline visit for a DNHS participant was the first visit. […] Timed function tests were analyzed as velocity scores to limit the impact of participants who could not perform the test (velocity=0). Velocity measures are variance-stabilizing transformations, suppressing extreme raw outliers from raw values in seconds; these help with distributional assumptions of the statistical models/tests used. Raw data (seconds) are also reported. Velocity scores for […] (event/second), TTRW (meters/second), and […] (event/second) were inputted as 0 at the first response missing due to inability to perform the test. All other data were observed values only, without imputation. No adjustments for multiplicity on inferential statistics were specified in the iSAP.

ambulant boys with DMD [4] = test: VBP15-004 growth (height Z score); type: in vivo, human; details: prednisone 0.75 mg/kg/day
ambulant boys with DMD [5] = details: male, human, in vivo, 24 weeks
ambulant boys with DMD [6] = test: VBP15-004 adverse events and behavior AESIs; details: PDN 0.75 mg, N = 31, 24 weeks
[7] = CINRG DNHS, deflazacort n = 94, prednisone n = 80
[8] = Griggs et al. 2016, 12-month trial, 0.9 mg/kg/day deflazacort (n = 68), 0.75 mg/kg/day prednisone (n = 63)
[9] = CINRG prednisone trial, daily 0.75 mg/kg/day, 12 months
[10] = vamorolone 18-month treatment versus prednisone trial 12-month treatment, ANCOVA

For `CC(=O)OCC(=O)[C@@]12N=C(C)O[C@@H]1C[C@H]1[C@@H]3CCC4=CC(=O)C=C[C@]4(C)[C@H]3[C@@H](O)C[C@@]12C` [Deflazacort, deflazacort], the “Incidence of physician-reported Cushingoid” value (DMD participants [1]; [7]) is listed as 72%, the “Incidence of physician-reported behavior change” value (DMD participants [1]; [7]) is listed as 33% and the “Incidence of physician-reported weight gain” value (DMD participants [1]; [7]) is listed as 63%. For the same compound, the “Incidence of physician-reported Cushingoid” value (DMD participants [1]; [8]) was 60.3%, the “Incidence of physician-reported behavior change” value (DMD participants [1]; [8]) was 9% and the “Incidence of physician-reported hypertrichosis/hirsutism” value (DMD participants [1]; [8]) was 35%. For the same compound, the “Incidence of physician-reported weight gain” value (DMD participants [1]; [8]) was 27.9%, the “activity at the mineralocorticoid receptor” value [2] was “agonists” and the “LS Mean change in height percentiles for age” value (DMD subjects; DMD children treated with deflazacort, N = 40, 12 months treatment) was −11.4. The “change in height percentile over a 12-month treatment period” value (DMD subjects; Griggs et al. 2016, DMD) was −11.43 percentile.

In the case of `C[C@]12C=CC(=O)C=C1CC[C@@H]1[C@@H]2C(=O)C[C@@]2(C)[C@H]1CC[C@]2(O)C(=O)CO` [Prednisone, prednisone, reference compound], the “Mean BMI z-score, value (SD) at 12 months of treatment” value (DMD participants [3]; [9]) is reported as 1.068 (1.05), the “Mean height percentile for age, change from baseline (SD)” value (DMD participants [3]; [9]) is reported as −3.76 (10.44) and the “Mean height percentile for age, value (SD) at 12 months of treatment” value (DMD participants [3]; [9]) is reported as 26.14 (24.21). The “Mean BMI z-score, change from baseline (SD)” value (DMD participants [3]; [9]) was 0.459 (0.407), the “Mean BMI z-score, change from baseline (SD)” value (DMD participants [3]; CINRG prednisone trial, daily 0.75 mg/kg/day, 12 months, listed as prednisone) was 0.46 and the “Mean BMI z-score, LS mean difference (SE)” value (DMD participants [3]; [10]) was 0.066 (0.193). The “Mean height percentile for age, LS mean difference (SE)” value (DMD participants [3]; [10]) was 10.37 (3.86), the “change in height Z scores from baseline to Week 24” value (ambulant boys with DMD [4]) was “growth deceleration” and the “clinically relevant psychiatric events, subjects” value (ambulant boys with DMD [5]) was 19.4%. For the same compound, the “incidence of behavior problems” value (ambulant boys with DMD [5]) was 32.3%, the “moderate/severe behavior problems, subjects” value (ambulant boys with DMD [5]) was 22.6% and the “activity at the mineralocorticoid receptor” value [2] was “agonists”. For the same compound, the “Any Behavior AESI, moderate/severe: F (AE count)” value (ambulant boys with DMD [6]) was 8.

— patent publication US20240226117A1, “TREATMENT OF CONGENITAL ADRENAL HYPOPLASIA” (ReveraGen BioPharma, Inc., priority 2021, published 2024)
